Source: patent publication US20110152373A1, “HAIR GROWTH PROMOTING AGENT CONTAINING 15,15-DIFLUOROPROSTAGLANDIN F2ALPHA DERIVATIVE AS ACTIVE INGREDIENT” (SANTAN PHARMACEUTICAL CO., LTD., priority 2008, published 2011)

Tested on: eyelashes of patients with open-angle glaucoma or ocular hypertension
Assay: European Phase III clinical trial: eyelash findings from photographs compared with base line
Format: in vivo, human
Details: for Color of eyelashes was changed (number of patients with finding) / Eyelashes were grown (number of patients with finding) / Eyelashes were made thicker (number of patients with finding): eye drop (0.0015% tafluprost or 0.005% latanoprost) once a day, one drop, total 264 patients per group
Experimental: A European Phase III clinical trial for tafluprost, one of the 15,15-difluoroprostaglandin F2α derivatives, with patients with open-angle glaucoma or ocular hypertension was performed by the following test method, and tafluprost was evaluated for findings associated with the eyelashes and an peripheral area thereof, that is, the evaluation was performed as to whether eyelashes were grown, eyelashes were made thicker, and the color of eyelashes was changed by the following evaluation method.
Patients with open-angle glaucoma or ocular hypertension were randomly allocated to two groups (a 0.0015% tafluprost eye drop group and a 0.005% latanoprost eye drop group) and received the eye drop once a day at a dose of one drop for 24 months in a double-blind manner after a washout period for 5 days to 4 weeks or more according to need prior to the glaucoma medication.
The eyelashes and eyelids were photographed at 0 (base line), 3, 6, 12, 18, and 24 months, and the photographs were compared with the base line, and the presence or absence of findings (eyelashes were grown, eyelashes were made thicker, and the color of eyelashes was changed) was confirmed.

`CC(C)OC(=O)CCC/C=C\C[C@@H]1[C@@H](CC[C@@H](O)CCc2ccccc2)[C@H](O)C[C@@H]1O` [Latanoprost, latanoprost, reference compound] was tested, and the “Color of eyelashes was changed (number of patients with finding)” value (24 months) was 10 patients, the “Eyelashes were grown (number of patients with finding)” value (24 months) was 11 patients and the “Eyelashes were made thicker (number of patients with finding)” value (24 months) was 4 patients.
For `CC(C)OC(=O)CCC/C=C\C[C@@H]1[C@@H](/C=C/C(F)(F)COc2ccccc2)[C@H](O)C[C@@H]1O` [Tafluprost, tafluprost], the “Effect of promoting the growth of hair (eyelashes), in words” value (0.0015% eye drop once a day for 24 months, conclusion from Table 1) was “has actions of growing eyelashes, making eyelashes thicker, and changing the color thereof”, the “Eyelash actions compared with those of latanoprost, in words” value (0.0015% tafluprost eye drop vs 0.005% latanoprost eye drop, 24 months) was “significant effects as compared with those of latanoprost” and the “Color of eyelashes was changed (number of patients with finding)” value (24 months) was 13 patients. For the same compound, the “Eyelashes were grown (number of patients with finding)” value (24 months) was 17 patients and the “Eyelashes were made thicker (number of patients with finding)” value (24 months) was 5 patients.
